Among the test systems are SF-295 CNS; RPMI-8226 leukemia; HCT-15 colon; SF-268 CNS; OVCAR-4 ovarian; CCRF-CEM leukemia; UACC-62 melanoma; ACHN renal; PC-3 prostate.
What all share (assay): NCI anticancer screen, dose series, 48 h

Molecules are shown by their SMILES.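 Where inhibition never reached the appropriate level, the endpoint shown equals the highest concentration tested. Otherwise, values were interpolated linearly from a five-concentration, 48-hour dose response in 96-well plates. The concentration for 50% growth inhibition is given as GI50. The concentration for full growth arrest is given as TGI.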 Where only a bound is given, the exact number is not on record here.

On to `N#CCN1C(=O)c2cc([N+](=O)[O-])cc3cc([N+](=O)[O-])cc(c23)C1=O`, for which the TGI is greater than 100 µM in the assay with SF-295 CNS; greater than 38.3 µM in the assay with RPMI-8226 leukemia; 20.3 µM in the assay with HCT-15 colon; 48.8 µM with SF-268 CNS; 28.4 µM in the assay on OVCAR-4 ovarian; 17.7 µM in the assay on CCRF-CEM leukemia. For the same compound, the TGI worked out at 29.2 µM in the assay on UACC-62 melanoma and 26.3 µM with ACHN renal.
Take `CC(=O)/C(=C\c1ccccc1O)C(=O)Nc1ccccc1C`: the TGI with SF-295 CNS was 76.2 µM; in the assay with RPMI-8226 leukemia, 71.4 µM; with HCT-15 colon it was 45.3 µM; with SF-268 CNS, greater than 100 µM; with OVCAR-4 ovarian, greater than 100 µM; in the assay with CCRF-CEM leukemia, 84.9 µM. Also, the figures for the TGI in the assay on UACC-62 melanoma and in the assay on ACHN renal were 68.7 µM and 40.9 µM, respectively.
In the case of `NC1=NC(=O)C(CC(=O)Nc2ccc(Cl)cc2Cl)S1` (stereo not given), the TGI with SF-295 CNS, in the assay with RPMI-8226 leukemia, with HCT-15 colon, in the assay with SF-268 CNS, in the assay with OVCAR-4 ovarian and in the assay on CCRF-CEM leukemia was greater than 100 µM in each case. Besides, the TGI in the assay on UACC-62 melanoma and with ACHN renal was greater than 100 µM in each case.
`O=C1OC(=O)c2c1c(-c1ccccc1)nc1ccccc21`: the TGI in the assay on SF-295 CNS, in the assay on RPMI-8226 leukemia, in the assay on HCT-15 colon, in the assay on SF-268 CNS, in the assay on CCRF-CEM leukemia and in the assay with UACC-62 melanoma was greater than 100 µM each time.
With `O=C(NCCNCCO)c1cccc2ccc(-c3ccccc3)nc12`, the TGI in the assay on SF-295 CNS turned out to be 18.9 µM; in the assay on HCT-15 colon, 14.8 µM; in the assay with SF-268 CNS it was 19 µM; with OVCAR-4 ovarian, 18.5 µM; in the assay on CCRF-CEM leukemia it was 27.1 µM; in the assay with UACC-62 melanoma, 13.8 µM. This compound showed a TGI in the assay with ACHN renal of 5.65 µM.
On to `O=Cc1ccc2c(c1I)OCO2`, for which the TGI with SF-295 CNS, with RPMI-8226 leukemia, in the assay on HCT-15 colon, with OVCAR-4 ovarian, in the assay on CCRF-CEM leukemia and in the assay on UACC-62 melanoma was greater than 100 µM in each case. The same compound gave a TGI in the assay on ACHN renal greater than 100 µM.
Regarding `ClC1=C(Cl)C(Cl)(Cl)c2c3c(c4c(c21)C(Cl)(Cl)C(Cl)=C4Cl)C(Cl)(Cl)C(Cl)=C3Cl`, the TGI in the assay with SF-295 CNS, with RPMI-8226 leukemia, in the assay on HCT-15 colon, in the assay with SF-268 CNS, in the assay on CCRF-CEM leukemia and with ACHN renal was greater than 100 µM throughout.
In the case of `COc1ccc(-c2cc(=O)c3c(O)cccc3o2)c(OC)c1OC`, the TGI in the assay with SF-295 CNS, with RPMI-8226 leukemia, in the assay with HCT-15 colon, in the assay with SF-268 CNS, in the assay on OVCAR-4 ovarian and with CCRF-CEM leukemia was greater than 100 µM in each case. Besides, the TGI in the assay on UACC-62 melanoma and in the assay with ACHN renal was greater than 100 µM throughout.
Regarding `CC(C)(C)c1cc2nc(c1)C(C(F)(F)F)(C(F)(F)F)OB(Br)OC2(C(F)(F)F)C(F)(F)F`, the TGI with SF-295 CNS was found to be 3.4 µM; in the assay with RPMI-8226 leukemia, 3.76 µM; in the assay on HCT-15 colon it was 13.8 µM; in the assay with SF-268 CNS, 17.8 µM; in the assay on CCRF-CEM leukemia it was 0.677 µM; in the assay on UACC-62 melanoma it was 0.983 µM.
Regarding `O=C(O)CCNS(=O)(=O)c1ccc([N+](=O)[O-])cc1`, the TGI with SF-295 CNS, with RPMI-8226 leukemia, with HCT-15 colon, in the assay on SF-268 CNS, with OVCAR-4 ovarian and in the assay with CCRF-CEM leukemia was greater than 100 µM each time. The TGI in the assay on UACC-62 melanoma and in the assay on ACHN renal was greater than 100 µM in each case.
As to `COc1cc(C2(C)SCCCS2)cc(OC)c1OC`, the TGI in the assay with SF-295 CNS, in the assay on RPMI-8226 leukemia, in the assay with HCT-15 colon, in the assay with SF-268 CNS, in the assay with OVCAR-4 ovarian and in the assay with CCRF-CEM leukemia was greater than 100 µM throughout. The TGI with UACC-62 melanoma and with ACHN renal was greater than 100 µM each time.
Consider `COC(=O)C(C(=O)C(=O)Nc1ccc([N+](=O)[O-])cc1)c1nc2ccc([N+](=O)[O-])cc2[nH]c1=O` (stereo not given), for which the TGI in the assay with SF-295 CNS, in the assay on HCT-15 colon, in the assay with SF-268 CNS, in the assay on OVCAR-4 ovarian, in the assay with CCRF-CEM leukemia and with UACC-62 melanoma was greater than 100 µM each time. Also, the TGI in the assay with ACHN renal was greater than 100 µM.
On to `Cc1cccc(NC(=O)/C(=N\N)C(c2cnc3ccc([N+](=O)[O-])cc3n2)[N+](=O)[O-])c1C` (stereo not given), for which the TGI with SF-295 CNS, in the assay on HCT-15 colon, with SF-268 CNS, with OVCAR-4 ovarian, with CCRF-CEM leukemia and with UACC-62 melanoma was greater than 100 µM each time. In addition, the TGI in the assay on ACHN renal is greater than 100 µM.
On to `C[C@@H]1O[C@@H](O[C@@H]2[C@@H](O)[C@H](OCCc3ccc(O)c(O)c3)O[C@H](CO)[C@H]2OC(=O)/C=C/c2ccc(O)c(O)c2)[C@H](O)[C@H](OC2OC[C@](O)(CO)[C@H]2O)[C@H]1O` (stereo not given in full), for which the GI50 with SF-295 CNS is greater than 100 µM; with PC-3 prostate, 7.41 µM; in the assay on RPMI-8226 leukemia, 34.9 µM; in the assay on HCT-15 colon it was greater than 100 µM; with OVCAR-4 ovarian it was greater than 100 µM; in the assay with UACC-62 melanoma, greater than 100 µM. In the assay on ACHN renal, the GI50 is greater than 100 µM. In addition, the TGI was greater than 100 µM in the assay with SF-295 CNS; greater than 100 µM with PC-3 prostate; greater than 100 µM in the assay on RPMI-8226 leukemia; greater than 100 µM with HCT-15 colon; 53.4 µM in the assay with SF-268 CNS; greater than 100 µM in the assay with OVCAR-4 ovarian. Moreover, the TGI in the assay on UACC-62 melanoma and in the assay on ACHN renal was greater than 100 µM throughout.
Turning to `Cc1cc2c(c(C(N)=O)c1C)-c1cc(Cl)cc(Cl)c1C2=O`, the TGI in the assay with SF-295 CNS, in the assay on RPMI-8226 leukemia, with HCT-15 colon, with SF-268 CNS, in the assay with OVCAR-4 ovarian and with CCRF-CEM leukemia was greater than 100 µM throughout. The TGI in the assay with UACC-62 melanoma and in the assay on ACHN renal was greater than 100 µM in each case.
On to `Cc1ccccc1-n1c(N)c(-c2nc3ccccc3[nH]2)sc1=S`, for which the TGI was 42.4 µM in the assay with SF-295 CNS; 62.2 µM in the assay on RPMI-8226 leukemia; 71.7 µM with HCT-15 colon; 69.6 µM in the assay with SF-268 CNS; 78.3 µM with OVCAR-4 ovarian; greater than 100 µM in the assay on CCRF-CEM leukemia. In addition, the TGI was 37.1 µM in the assay on UACC-62 melanoma and greater than 100 µM in the assay on ACHN renal.
